Data on twelve molecules can be found in patent US10723741B1, “DNA polymerase IIIC inhibitors and use thereof” (Acurx Pharmaceuticals, LLC, priority 2018, dated 2020).

Assay type in all cases: cell-based
Experiment [1] has as its system Bacillus subtilis ATCC 6633. Kind of experiment: Broth microdilution MIC, B. subtilis ATCC 6633. The following applies: ATCC6633, broth microdilution, 37° C., 20 hours, read-out: MIC B. subtilis ATCC 6633. In a few lines:
(§1)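 Two-fold dilutions from 64 to 0.0625 μg/ml final, 1% DMSO, were inoculated at ~5.0×10^5 cfu/ml in the strain's test medium and kept 20 h at 37 °C in ambient atmosphere. Colonies were grown on MHA, with S. pneumoniae on blood agar under 5% CO2.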
(In general: Broth dilution looks for growth in wells or tubes with falling amounts of substance.)

Experiment [2] deals with Enterococcus faecalis ATCC 29212. As to the kind of experiment: Broth microdilution MIC, E. faecalis ATCC 29212. The following applies: ATCC29212, broth microdilution, 37° C., 20 hours, read-out: MIC E. faecalis ATCC 29212. In a few lines:
as §1

The subject of experiment [3] is Enterococcus faecium ATCC 700221 (VRE). Kind of experiment: Broth microdilution MIC, E. faecium ATCC 700221 (VRE). The following applies: Enterococcus faecium; broth microdilution, 37° C., 20 hours; read-out: MIC E. faecium ATCC 700221 (VRE). The gist of the method: as §1
In experiment [4] the test system is Staphylococcus aureus ATCC 29213 (MSSA). As to the kind of experiment: Broth microdilution MIC, S. aureus ATCC 29213 (MSSA). Particulars: broth microdilution, 37° C., 20 hours, read-out: MIC S. aureus ATCC 29213 (MSSA). In a few lines:
as §1

Experiment [5] concerns Escherichia coli ATCC 25922. As to the kind of experiment: Broth microdilution MIC, E. coli ATCC 25922 (MHIIB w & w/o 4 mM EDTA). The following applies: broth microdilution, 37° C., 20 hours; for MIC: Escherichia coli, ATCC25922, without EDTA, read-out: MIC E. coli ATCC 25922; for MIC E. coli ATCC 25922 + 4 mM EDTA: with 4 mM EDTA. The gist of the method: as §1
The subject of experiment [6] is Staphylococcus aureus NRS384 (MRSA). As to the kind of experiment: Broth microdilution MIC, S. aureus NRS384 (MRSA). Particulars: Staphylococcus aureus; broth microdilution, 37° C., 20 hours; read-out: MIC NRS 384 (MRSA). In a few lines: as §1
For experiment [7], the system named is Streptococcus pneumoniae ATCC 49619. Kind of experiment: Broth microdilution MIC, S. pneumoniae ATCC 49619. The following applies: ATCC49619, broth microdilution, 37° C., 20 hours, read-out: MIC S. pneumoniae ATCC 49619. In a few lines: as §1

Structures are written as SMILES. In brackets after ≈: the same amount, converted by molar mass. Bounds are passed on as bounds.

By MIC is commonly meant the least concentration at which growth counts as inhibited. Consider `O=c1[nH]c(NCc2ccc(Cl)c(Cl)c2)nc2cnn(CCOC/C=N/O)c12` [Compound 191, (E)-2-(2-(5-((3,4-dichlorobenzyl)amino)-7-oxo-6,7-dihydro-1H-pyrazolo[4,3-d]pyrimidin-1-yl)ethoxy)acetaldehyde oxime], for which the MIC in experiment [1] was 2 µg/mL (≈ 4.86 µM); in experiment [2], 8 µg/mL (≈ 19.5 µM); in experiment [3] it was 2 µg/mL (≈ 4.86 µM); in experiment [4], 4 µg/mL (≈ 9.73 µM); in experiment [5], over 64 µg/mL; in experiment [6], 8 µg/mL (≈ 19.5 µM). Besides, in experiment [7], the MIC came out at 4 µg/mL (≈ 9.73 µM). For the same molecule, the “MIC E. coli ATCC 25922 + 4 mM EDTA” value in experiment [5] was over 64 µg/mL.
For the molecule `COC/C=C/Cn1ncc2nc(NCc3ccc(Cl)c(Cl)c3)[nH]c(=O)c21` [Compound 192, (E)-5-((3,4-dichlorobenzyl)amino)-1-(4-methoxybut-2-en-1-yl)-1H-pyrazolo[4,3-d]pyrimidin-7(6H)-one], the MIC in experiment [1] was 1 µg/mL (≈ 2.54 µM); in experiment [2], 4 µg/mL (≈ 10.1 µM); in experiment [3], 2 µg/mL (≈ 5.07 µM); in experiment [4], 2 µg/mL (≈ 5.07 µM); in experiment [5], over 64 µg/mL; in experiment [6], 2 µg/mL (≈ 5.07 µM). In experiment [7], the minimal inhibitory concentration (MIC) stood at 4 µg/mL (≈ 10.1 µM). Besides, in experiment [5], the “MIC E. coli ATCC 25922 + 4 mM EDTA” value was over 64 µg/mL.
For the molecule `COCCOC/C=C/Cn1ncc2nc(NCc3ccc(Cl)c(Cl)c3)[nH]c(=O)c21` [Compound 193, (E)-5-((3,4-dichlorobenzyl)amino)-1-(4-(2-methoxyethoxy)but-2-en-1-yl)-1H-pyrazolo[4,3-d]pyrimidin-7(6H)-one], the MIC was 1 µg/mL (≈ 2.28 µM) in experiment [1]; 8 µg/mL (≈ 18.3 µM) in experiment [2]; 4 µg/mL (≈ 9.13 µM) in experiment [3]; 4 µg/mL (≈ 9.13 µM) in experiment [4]; over 64 µg/mL in experiment [5]; 4 µg/mL (≈ 9.13 µM) in experiment [6]. In experiment [7], the MIC amounted to 4 µg/mL (≈ 9.13 µM). Moreover, the “MIC E. coli ATCC 25922 + 4 mM EDTA” value in experiment [5] was over 64 µg/mL.
For the molecule `CCOC(=O)C1(Cn2ncc3nc(NCc4ccc(Cl)c(Cl)c4)[nH]c(=O)c32)CCNCC1.Cl` [Compound 194, ethyl 4-((5-((3,4-dichlorobenzyl)amino)-7-oxo-6,7-dihydro-1H-pyrazolo[4,3-d]pyrimidin-1-yl)methyl)piperidine-4-carboxylate hydrochloride], the minimum inhibitory concentration (MIC) is 8 µg/mL in experiment [1]; 32 µg/mL in experiment [2]; 32 µg/mL in experiment [3]; 64 µg/mL in experiment [4]; over 64 µg/mL in experiment [5]; over 64 µg/mL in experiment [6]. Also, in experiment [7], the minimal inhibitory concentration (MIC) came out at 16 µg/mL. The “MIC E. coli ATCC 25922 + 4 mM EDTA” value in experiment [5] was 64 µg/mL.
Turning to `Cl.O=c1[nH]c(NCc2ccc(Cl)c(Cl)c2)nc2cnn(CC3(CO)CCNCC3)c12` [Compound 195, 5-((3,4-dichlorobenzyl)amino)-1-((4-(hydroxymethyl)piperidin-4-yl)methyl)-1H-pyrazolo[4,3-d]pyrimidin-7(6H)-one hydrochloride], the minimum inhibitory concentration (MIC) in experiment [1] is 8 µg/mL; in experiment [2], 64 µg/mL; in experiment [3], 64 µg/mL; in experiment [4] it was over 64 µg/mL; in experiment [5], over 64 µg/mL; in experiment [6], over 64 µg/mL. The minimum inhibitory concentration (MIC) in experiment [7] amounted to 16 µg/mL. The “MIC E. coli ATCC 25922 + 4 mM EDTA” value in experiment [5] was over 64 µg/mL.
For the molecule `Cl.O=C(O)C1(Cn2ncc3nc(NCc4ccc(Cl)c(Cl)c4)[nH]c(=O)c32)CCNCC1` [Compound 196, 4-((5-((3,4-dichlorobenzyl)amino)-7-oxo-6,7-dihydro-1H-pyrazolo[4,3-d]pyrimidin-1-yl)methyl)piperidine-4-carboxylic acid hydrochloride], the minimal inhibitory concentration (MIC) in experiment [1], in experiment [2], in experiment [3], in experiment [4], in experiment [5] and in experiment [6] was over 64 µg/mL each time. In addition, the minimal inhibitory concentration (MIC) in experiment [7] is over 64 µg/mL. Besides, the “MIC E. coli ATCC 25922 + 4 mM EDTA” value in experiment [5] is over 64 µg/mL.
Take `C[Si](C)(C)CCOCNC(=O)Cn1ncc2nc(NCc3ccc(Cl)c(Cl)c3)[nH]c(=O)c21` [Compound 197, 2-(5-((3,4-dichlorobenzyl)amino)-7-oxo-6,7-dihydro-1H-pyrazolo[4,3-d]pyrimidin-1-yl)-N-((2-(trimethylsilyl)ethoxy)methyl)acetamide]: the minimal inhibitory concentration (MIC) in experiment [1], in experiment [2], in experiment [3], in experiment [4], in experiment [5] and in experiment [6] was over 64 µg/mL throughout. In addition, in experiment [7], the minimal inhibitory concentration (MIC) is over 64 µg/mL. For the same molecule, in experiment [5], the “MIC E. coli ATCC 25922 + 4 mM EDTA” value is over 64 µg/mL.
On to `CNC(=O)C(C)(C)CCCn1ncc2nc(NCc3ccc(Cl)c(Cl)c3)[nH]c(=O)c21` [Compound 198, 5-(5-((3,4-dichlorobenzyl)amino)-7-oxo-6,7-dihydro-1H-pyrazolo[4,3-d]pyrimidin-1-yl)-N,2,2-trimethylpentanamide], for which the MIC in experiment [1] was 4 µg/mL (≈ 8.86 µM); in experiment [2] it was 16 µg/mL (≈ 35.4 µM); in experiment [3] it was 16 µg/mL (≈ 35.4 µM); in experiment [4], 16 µg/mL (≈ 35.4 µM); in experiment [5] it was over 64 µg/mL; in experiment [6] it was 16 µg/mL (≈ 35.4 µM). In experiment [7], the MIC was found to be 16 µg/mL (≈ 35.4 µM). Further, the “MIC E. coli ATCC 25922 + 4 mM EDTA” value in experiment [5] was over 64 µg/mL.
With `CC(C)(CCCn1ncc2nc(NCc3ccc(Cl)c(Cl)c3)[nH]c(=O)c21)C(=O)O` [Compound 199, 5-(5-((3,4-Dichlorobenzyl)amino)-7-oxo-6,7-dihydro-1H-pyrazolo[4,3-d]pyrimidin-1-yl)-2,2-dimethylpentanoic acid], the MIC was 32 µg/mL (≈ 73 µM) in experiment [1]; 16 µg/mL (≈ 36.5 µM) in experiment [2]; 8 µg/mL (≈ 18.3 µM) in experiment [3]; 16 µg/mL (≈ 36.5 µM) in experiment [4]; over 64 µg/mL in experiment [5]; 16 µg/mL (≈ 36.5 µM) in experiment [6]. For the same molecule, in experiment [7], the MIC amounted to 8 µg/mL (≈ 18.3 µM). Moreover, the “MIC E. coli ATCC 25922 + 4 mM EDTA” value in experiment [5] is given as over 64. ug/ml.
As to `CNC(=O)C(CCCn1ncc2nc(NCc3ccc(Cl)c(Cl)c3)[nH]c(=O)c21)c1ccccc1` (stereo not drawn) [Compound 200, 5-(5-((3,4-dichlorobenzyl)amino)-7-oxo-6,7-dihydro-1H-pyrazolo[4,3-d]pyrimidin-1-yl)-N-methyl-2-phenylpentanamide], the minimal inhibitory concentration (MIC) was 2 µg/mL (≈ 4 µM) in experiment [1]; 16 µg/mL (≈ 32 µM) in experiment [2]; 8 µg/mL (≈ 16 µM) in experiment [3]; 8 µg/mL (≈ 16 µM) in experiment [4]; over 64 µg/mL in experiment [5]; 8 µg/mL (≈ 16 µM) in experiment [6]. Also, in experiment [7], the minimal inhibitory concentration (MIC) was 16 µg/mL (≈ 32 µM). In addition, the “MIC E. coli ATCC 25922 + 4 mM EDTA” value in experiment [5] is over 64 µg/mL.
On to `O=C(O)C(CCCn1ncc2nc(NCc3ccc(Cl)c(Cl)c3)[nH]c(=O)c21)c1ccccc1` (stereo not drawn) [Compound 201, 5-(5-((3,4-dichlorobenzyl)amino)-7-oxo-6,7-dihydro-1H-pyrazolo[4,3-d]pyrimidin-1-yl)-2-phenylpentanoic acid], for which the MIC in experiment [1] was 64 µg/mL (≈ 132 µM); in experiment [2], 32 µg/mL (≈ 65.8 µM); in experiment [3], 16 µg/mL (≈ 32.9 µM); in experiment [4] it was 32 µg/mL (≈ 65.8 µM); in experiment [5], over 64 µg/mL; in experiment [6] it was 32 µg/mL (≈ 65.8 µM). Also, the MIC in experiment [7] worked out at 16 µg/mL (≈ 32.9 µM). The “MIC E. coli ATCC 25922 + 4 mM EDTA” value in experiment [5] is recorded as over 64. ug/ml.
Consider `CC(CCCn1ncc2nc(NCc3ccc(Cl)c(Cl)c3)[nH]c(=O)c21)C(=O)O` (stereo not drawn) [Compound 202, 5-(5-((3,4-dichlorobenzyl)amino)-7-oxo-6,7-dihydro-1H-pyrazolo[4,3-d]pyrimidin-1-yl)-2-methylpentanoic acid], for which the MIC was 32 µg/mL (≈ 75.4 µM) in experiment [1]; 32 µg/mL (≈ 75.4 µM) in experiment [2]; 16 µg/mL (≈ 37.7 µM) in experiment [3]; 32 µg/mL (≈ 75.4 µM) in experiment [4]; over 64 µg/mL in experiment [5]; 32 µg/mL (≈ 75.4 µM) in experiment [6]. For the same molecule, the MIC in experiment [7] came out at 8 µg/mL (≈ 18.9 µM). Besides, the “MIC E. coli ATCC 25922 + 4 mM EDTA” value in experiment [5] is over 64 µg/mL.
